The values below come from ChEMBL document CHEMBL5696442, “Discovery of type II inhibitors of TGFβ-activated kinase 1 (TAK1) and mitogen-activated protein kinase kinase kinase kinase 2 (MAP4K2)” (J Med Chem, 2015).

Activity calls are given as the source filed them. The calls are words filed in the database; no cut-off is given here.

Test [1] deals with Serine/threonine-protein kinase MARK2 (Homo sapiens) (UniProt Q7KZI7). Nature of the test: Inhibition of MARK2 Lys1 labeling site harbouring HILTGKEVAVKIIDKTQLNSSSLQK in human Huh-7 cell lysate at 1 uM by KiNativ Profiling analysis relative to control. The class given is subcellular.
Test [2] has as its target Ribosomal protein S6 kinase alpha-1 (Homo sapiens) (UniProt Q15418). Nature of the test: Inhibition of RSK1 domain 1 Lys2 labeling site harbouring DLKPENILLDEEGHIKLTDFGLSK in human Huh-7 cell lysate at 1 uM by KiNativ Profiling analysis relative to control. The class given is subcellular.
The target of test [3] is T1, Serine/threonine-protein kinase Sgk3 (Homo sapiens) (UniProt Q96BR1).
T1 sequence (whole entry): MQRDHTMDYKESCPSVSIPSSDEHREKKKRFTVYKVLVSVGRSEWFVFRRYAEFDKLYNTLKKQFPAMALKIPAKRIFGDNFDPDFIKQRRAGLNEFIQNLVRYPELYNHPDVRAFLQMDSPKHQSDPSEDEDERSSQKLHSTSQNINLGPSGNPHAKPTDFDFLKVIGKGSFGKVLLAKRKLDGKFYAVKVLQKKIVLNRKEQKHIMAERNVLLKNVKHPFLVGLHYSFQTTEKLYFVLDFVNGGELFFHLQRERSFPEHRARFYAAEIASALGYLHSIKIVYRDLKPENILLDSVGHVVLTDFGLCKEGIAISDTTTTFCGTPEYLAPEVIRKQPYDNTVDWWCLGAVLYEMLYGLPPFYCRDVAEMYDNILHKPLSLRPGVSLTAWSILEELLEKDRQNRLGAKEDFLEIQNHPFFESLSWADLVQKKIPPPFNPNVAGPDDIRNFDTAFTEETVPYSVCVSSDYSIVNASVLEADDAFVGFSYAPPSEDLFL
Nature of the test: Inhibition of SGK3 Lys2 labeling site in human Huh-7 cell lysate at 1 uM by KiNativ Profiling analysis relative to control. Type of test: subcellular.

Test [4] deals with Ephrin type-A receptor 7 (Homo sapiens) (UniProt Q15375). Nature of the test: Inhibition of EPHA7 (unknown origin) at 1 uM by Ambit Kinomescan binding assay relative to control.
Sequence of Ephrin type-A receptor 7 (Homo sapiens) (Q15375 28-998 limits assumed): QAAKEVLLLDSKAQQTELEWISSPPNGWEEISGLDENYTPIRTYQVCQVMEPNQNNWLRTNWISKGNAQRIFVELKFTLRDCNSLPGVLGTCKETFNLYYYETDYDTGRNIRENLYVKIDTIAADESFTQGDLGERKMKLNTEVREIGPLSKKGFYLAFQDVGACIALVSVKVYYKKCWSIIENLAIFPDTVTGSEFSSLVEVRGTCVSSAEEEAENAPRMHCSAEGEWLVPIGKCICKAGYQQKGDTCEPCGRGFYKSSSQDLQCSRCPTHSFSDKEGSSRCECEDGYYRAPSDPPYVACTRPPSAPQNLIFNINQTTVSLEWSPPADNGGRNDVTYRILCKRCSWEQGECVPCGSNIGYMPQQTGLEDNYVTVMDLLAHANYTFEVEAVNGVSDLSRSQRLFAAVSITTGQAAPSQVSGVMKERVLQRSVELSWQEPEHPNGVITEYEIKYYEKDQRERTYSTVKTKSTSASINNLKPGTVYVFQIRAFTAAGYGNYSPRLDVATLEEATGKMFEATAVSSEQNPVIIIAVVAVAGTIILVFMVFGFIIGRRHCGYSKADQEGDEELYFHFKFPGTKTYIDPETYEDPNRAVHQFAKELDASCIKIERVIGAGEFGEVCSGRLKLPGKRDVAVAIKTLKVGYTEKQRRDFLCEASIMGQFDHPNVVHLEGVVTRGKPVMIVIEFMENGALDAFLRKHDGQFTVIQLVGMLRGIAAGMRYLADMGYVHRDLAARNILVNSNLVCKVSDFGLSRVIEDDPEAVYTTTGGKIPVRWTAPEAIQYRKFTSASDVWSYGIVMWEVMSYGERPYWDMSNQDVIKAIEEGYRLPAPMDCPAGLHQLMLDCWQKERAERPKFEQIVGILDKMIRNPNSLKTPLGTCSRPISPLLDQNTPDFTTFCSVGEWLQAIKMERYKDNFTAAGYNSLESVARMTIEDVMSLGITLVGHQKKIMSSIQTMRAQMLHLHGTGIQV
Test [5] deals with T2, Atrial natriuretic peptide receptor 2 (Homo sapiens) (UniProt P20594).
T2 sequence (whole entry): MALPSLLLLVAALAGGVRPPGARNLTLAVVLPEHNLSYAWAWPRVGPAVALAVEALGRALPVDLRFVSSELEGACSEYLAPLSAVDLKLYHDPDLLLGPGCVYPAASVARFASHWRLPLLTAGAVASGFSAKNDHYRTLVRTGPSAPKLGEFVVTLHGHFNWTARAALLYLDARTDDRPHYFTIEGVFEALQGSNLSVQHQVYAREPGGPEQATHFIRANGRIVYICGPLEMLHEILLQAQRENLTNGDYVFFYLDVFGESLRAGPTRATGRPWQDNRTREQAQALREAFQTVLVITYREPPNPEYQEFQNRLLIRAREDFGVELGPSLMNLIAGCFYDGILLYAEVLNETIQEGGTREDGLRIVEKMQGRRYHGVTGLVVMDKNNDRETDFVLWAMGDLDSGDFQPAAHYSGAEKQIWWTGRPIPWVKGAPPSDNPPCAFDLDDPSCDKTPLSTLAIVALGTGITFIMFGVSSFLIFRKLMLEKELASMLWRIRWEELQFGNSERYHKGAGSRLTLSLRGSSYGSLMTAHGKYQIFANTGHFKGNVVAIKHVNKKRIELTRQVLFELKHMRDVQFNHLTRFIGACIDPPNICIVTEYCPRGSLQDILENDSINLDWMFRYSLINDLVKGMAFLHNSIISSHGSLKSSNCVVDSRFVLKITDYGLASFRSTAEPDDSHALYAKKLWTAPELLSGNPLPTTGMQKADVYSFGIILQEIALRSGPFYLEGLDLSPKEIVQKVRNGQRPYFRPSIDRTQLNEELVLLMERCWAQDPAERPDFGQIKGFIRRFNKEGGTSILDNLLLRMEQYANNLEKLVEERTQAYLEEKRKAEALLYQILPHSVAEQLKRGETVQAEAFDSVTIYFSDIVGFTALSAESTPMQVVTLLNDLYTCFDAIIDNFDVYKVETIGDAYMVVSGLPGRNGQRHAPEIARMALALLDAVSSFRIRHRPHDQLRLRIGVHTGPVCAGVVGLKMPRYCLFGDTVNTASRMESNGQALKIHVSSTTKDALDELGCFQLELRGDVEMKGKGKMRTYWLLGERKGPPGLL
Nature of the test: Inhibition of ANPb Lys2 labeling site in human A-375 cells at 5 uM by KiNativ Profiling analysis relative to control. Type of test: cell-based.

Test [6] deals with T3, NUAK family SNF1-like kinase 2 (Homo sapiens) (UniProt Q9H093).
T3 sequence (whole entry): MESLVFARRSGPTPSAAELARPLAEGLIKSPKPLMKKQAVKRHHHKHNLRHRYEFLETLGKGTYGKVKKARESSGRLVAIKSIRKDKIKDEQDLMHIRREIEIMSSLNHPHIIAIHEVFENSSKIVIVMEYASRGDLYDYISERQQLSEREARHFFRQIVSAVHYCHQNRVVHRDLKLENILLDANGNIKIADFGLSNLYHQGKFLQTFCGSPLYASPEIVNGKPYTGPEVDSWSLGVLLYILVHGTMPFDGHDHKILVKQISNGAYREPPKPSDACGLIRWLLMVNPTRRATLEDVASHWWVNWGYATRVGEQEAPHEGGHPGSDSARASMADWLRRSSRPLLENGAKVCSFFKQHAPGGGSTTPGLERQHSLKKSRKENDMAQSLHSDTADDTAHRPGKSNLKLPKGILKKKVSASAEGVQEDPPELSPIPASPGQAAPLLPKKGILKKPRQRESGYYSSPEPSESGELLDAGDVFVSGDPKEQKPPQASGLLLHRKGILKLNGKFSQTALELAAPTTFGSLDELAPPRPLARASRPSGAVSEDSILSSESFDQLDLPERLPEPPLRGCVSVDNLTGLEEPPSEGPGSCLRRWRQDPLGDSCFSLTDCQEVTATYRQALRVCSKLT
Nature of the test: Inhibition of NuaK2 Lys1 labeling site in human A-375 cells at 5 uM by KiNativ Profiling analysis relative to control. Type of test: cell-based.

For test [7], the system named is Leucine-rich repeat serine/threonine-protein kinase 2 (Homo sapiens), Q5S007 [G2019S]. The test is described as follows: Inhibition of LRRK2 G2019S mutant (unknown origin) at 1 uM by Ambit Kinomescan binding assay relative to control; values are per cent of control.
Sequence of Leucine-rich repeat serine/threonine-protein kinase 2 (Homo sapiens), Q5S007 [G2019S] (Q5S007 whole entry G2019S): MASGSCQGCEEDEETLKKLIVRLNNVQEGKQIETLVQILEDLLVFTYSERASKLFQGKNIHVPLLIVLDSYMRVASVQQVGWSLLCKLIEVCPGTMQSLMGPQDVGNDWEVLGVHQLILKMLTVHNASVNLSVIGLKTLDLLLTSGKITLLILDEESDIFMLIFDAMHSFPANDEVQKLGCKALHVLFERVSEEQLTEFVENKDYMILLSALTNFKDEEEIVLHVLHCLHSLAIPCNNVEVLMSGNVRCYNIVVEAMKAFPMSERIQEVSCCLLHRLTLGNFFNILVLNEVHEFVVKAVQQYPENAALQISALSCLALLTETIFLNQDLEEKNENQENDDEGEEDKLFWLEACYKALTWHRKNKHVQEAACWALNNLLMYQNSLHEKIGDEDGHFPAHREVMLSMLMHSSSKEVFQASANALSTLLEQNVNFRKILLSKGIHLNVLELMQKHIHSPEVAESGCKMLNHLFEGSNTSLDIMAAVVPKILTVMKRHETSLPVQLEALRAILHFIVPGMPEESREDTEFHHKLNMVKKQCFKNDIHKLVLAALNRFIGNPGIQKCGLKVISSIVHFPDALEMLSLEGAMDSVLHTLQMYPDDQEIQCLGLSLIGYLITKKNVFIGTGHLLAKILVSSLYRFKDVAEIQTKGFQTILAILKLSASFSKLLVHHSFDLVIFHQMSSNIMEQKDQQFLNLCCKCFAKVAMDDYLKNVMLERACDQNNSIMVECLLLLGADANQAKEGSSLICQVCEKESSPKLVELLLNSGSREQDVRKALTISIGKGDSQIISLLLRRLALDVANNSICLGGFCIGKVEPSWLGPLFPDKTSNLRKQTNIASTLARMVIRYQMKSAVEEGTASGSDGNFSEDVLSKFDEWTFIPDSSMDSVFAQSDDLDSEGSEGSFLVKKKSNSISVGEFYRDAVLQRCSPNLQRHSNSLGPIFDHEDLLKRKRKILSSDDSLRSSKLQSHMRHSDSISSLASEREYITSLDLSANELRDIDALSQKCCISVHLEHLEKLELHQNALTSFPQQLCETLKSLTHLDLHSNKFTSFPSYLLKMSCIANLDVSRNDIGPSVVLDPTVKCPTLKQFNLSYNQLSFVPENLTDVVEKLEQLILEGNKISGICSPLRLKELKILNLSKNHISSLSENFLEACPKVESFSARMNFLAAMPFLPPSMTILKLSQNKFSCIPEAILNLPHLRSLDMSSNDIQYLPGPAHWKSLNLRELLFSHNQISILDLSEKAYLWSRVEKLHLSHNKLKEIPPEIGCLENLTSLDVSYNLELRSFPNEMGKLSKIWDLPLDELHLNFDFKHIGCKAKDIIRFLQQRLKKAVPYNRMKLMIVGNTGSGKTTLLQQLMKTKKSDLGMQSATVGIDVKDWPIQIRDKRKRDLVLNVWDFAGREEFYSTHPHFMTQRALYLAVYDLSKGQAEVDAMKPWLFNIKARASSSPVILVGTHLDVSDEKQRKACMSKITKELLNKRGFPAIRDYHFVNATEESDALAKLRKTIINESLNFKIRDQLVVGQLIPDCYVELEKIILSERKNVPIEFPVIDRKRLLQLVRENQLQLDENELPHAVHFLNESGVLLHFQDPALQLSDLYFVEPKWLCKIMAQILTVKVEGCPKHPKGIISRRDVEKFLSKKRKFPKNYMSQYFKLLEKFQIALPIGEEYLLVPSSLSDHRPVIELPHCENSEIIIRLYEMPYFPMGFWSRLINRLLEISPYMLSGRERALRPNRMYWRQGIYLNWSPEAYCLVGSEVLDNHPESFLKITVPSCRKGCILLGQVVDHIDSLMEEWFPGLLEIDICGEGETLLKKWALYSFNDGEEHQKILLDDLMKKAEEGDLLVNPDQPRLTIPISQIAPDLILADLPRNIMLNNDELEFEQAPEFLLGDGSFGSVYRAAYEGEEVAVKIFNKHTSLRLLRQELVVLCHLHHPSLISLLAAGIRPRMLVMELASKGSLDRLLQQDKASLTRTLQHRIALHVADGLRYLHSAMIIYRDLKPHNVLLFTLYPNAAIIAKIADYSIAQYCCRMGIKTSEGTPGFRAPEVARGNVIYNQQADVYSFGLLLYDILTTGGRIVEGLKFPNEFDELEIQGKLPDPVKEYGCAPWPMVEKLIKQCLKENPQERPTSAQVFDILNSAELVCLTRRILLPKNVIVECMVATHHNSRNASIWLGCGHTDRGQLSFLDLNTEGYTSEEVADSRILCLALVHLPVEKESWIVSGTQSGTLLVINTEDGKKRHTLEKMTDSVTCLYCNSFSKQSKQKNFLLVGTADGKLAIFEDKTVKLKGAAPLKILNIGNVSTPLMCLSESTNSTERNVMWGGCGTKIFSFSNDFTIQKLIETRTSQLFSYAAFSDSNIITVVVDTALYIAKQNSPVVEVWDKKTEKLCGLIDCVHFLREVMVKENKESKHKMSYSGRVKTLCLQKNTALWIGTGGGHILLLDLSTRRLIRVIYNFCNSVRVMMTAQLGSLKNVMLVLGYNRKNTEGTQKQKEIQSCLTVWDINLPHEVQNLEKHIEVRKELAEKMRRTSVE
In test [8] the target is Hepatocyte growth factor receptor (Homo sapiens) (UniProt P08581). The test is described as follows: Inhibition of MET (unknown origin) at 10 uM by Ambit Kinomescan binding assay.
Test [9] concerns the target Ribosomal protein S6 kinase alpha-3 (Homo sapiens) (UniProt P51812). Nature of the test: Inhibition of RSK2 Domain 1 ACT labeling site harbouring LTDFGLSKESIDHEK in human Huh-7 cells at 10 uM by KiNativ Profiling analysis relative to control. The class given is cell-based.

Sequence of Ribosomal protein S6 kinase alpha-3 (Homo sapiens) (P51812 whole entry, the tested form may be a part): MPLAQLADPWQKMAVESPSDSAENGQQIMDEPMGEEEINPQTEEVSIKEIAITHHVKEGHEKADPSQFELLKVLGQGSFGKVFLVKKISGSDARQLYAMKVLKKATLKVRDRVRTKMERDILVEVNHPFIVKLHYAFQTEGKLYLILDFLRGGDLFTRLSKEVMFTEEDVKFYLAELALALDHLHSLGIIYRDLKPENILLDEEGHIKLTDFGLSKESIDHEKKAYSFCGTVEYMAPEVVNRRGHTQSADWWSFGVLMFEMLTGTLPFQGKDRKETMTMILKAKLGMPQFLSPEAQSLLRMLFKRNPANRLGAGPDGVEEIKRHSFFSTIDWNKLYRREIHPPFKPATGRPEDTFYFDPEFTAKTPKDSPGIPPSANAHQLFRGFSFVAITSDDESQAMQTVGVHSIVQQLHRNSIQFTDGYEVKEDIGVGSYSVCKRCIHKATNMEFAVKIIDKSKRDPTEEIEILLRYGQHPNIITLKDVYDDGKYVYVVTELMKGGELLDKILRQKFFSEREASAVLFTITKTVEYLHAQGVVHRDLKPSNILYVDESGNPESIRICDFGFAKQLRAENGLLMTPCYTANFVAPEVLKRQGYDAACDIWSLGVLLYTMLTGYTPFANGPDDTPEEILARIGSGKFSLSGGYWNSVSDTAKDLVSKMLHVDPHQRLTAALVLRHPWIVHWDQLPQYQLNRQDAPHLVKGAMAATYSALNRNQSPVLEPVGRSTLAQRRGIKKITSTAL
Sequence of Ribosomal protein S6 kinase alpha-1 (Homo sapiens) (Q15418 whole entry, the tested form may be a part): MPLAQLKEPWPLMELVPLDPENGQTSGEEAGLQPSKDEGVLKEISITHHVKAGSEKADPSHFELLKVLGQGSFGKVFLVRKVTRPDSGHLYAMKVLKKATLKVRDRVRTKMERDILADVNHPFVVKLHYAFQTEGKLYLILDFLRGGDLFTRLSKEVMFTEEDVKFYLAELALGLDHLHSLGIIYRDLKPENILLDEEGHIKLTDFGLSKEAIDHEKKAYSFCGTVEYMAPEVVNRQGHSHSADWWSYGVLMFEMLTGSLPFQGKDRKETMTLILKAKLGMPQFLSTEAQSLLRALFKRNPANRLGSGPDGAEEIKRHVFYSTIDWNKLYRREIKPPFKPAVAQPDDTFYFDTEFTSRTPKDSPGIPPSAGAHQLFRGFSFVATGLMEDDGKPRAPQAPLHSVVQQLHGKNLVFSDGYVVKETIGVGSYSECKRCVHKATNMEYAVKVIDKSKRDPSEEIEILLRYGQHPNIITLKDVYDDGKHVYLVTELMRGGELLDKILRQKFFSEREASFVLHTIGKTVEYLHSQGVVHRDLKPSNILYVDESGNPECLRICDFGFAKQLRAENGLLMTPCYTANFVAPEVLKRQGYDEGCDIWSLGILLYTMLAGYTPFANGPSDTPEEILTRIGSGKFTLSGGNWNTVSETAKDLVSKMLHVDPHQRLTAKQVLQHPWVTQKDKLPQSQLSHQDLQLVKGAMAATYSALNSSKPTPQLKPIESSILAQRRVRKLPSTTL

For `CNc1cc(Oc2cc(C(=O)Nc3cc(N4CCN(C)CC4)cc(C(F)(F)F)c3)ccc2C)ncn1`, the inhibition in test [1] is -1.9%; in test [2] it was 3.1%; in [3] it was 13.3%.

In the case of `CCN1CCN(Cc2ccc(NC(=O)c3ccc(C)c(/C=C/c4cnc5[nH]ccc5c4OC)c3)cc2C(F)(F)F)CC1`, the inhibition in [4] was 78%; in test [5], -8.8%; in [6], -6.1%. The molecule further displayed a residual activity in test [7] of 71%.

`CCN1CCN(Cc2ccc(NC(=O)c3ccc(C)c(Oc4ccnc5[nH]ccc45)c3)cc2C(F)(F)F)CC1`: the inhibition result in [8] was “inactive”. In test [9], the inhibition is -1.5%.
